In series [1] the test system is vaccinia virus (DIE strain). Format: in vivo, vaccinia virus (DIE strain) in ICR female mice. The conditions noted are these: 50 mg/kg i.p. on the day just before inoculation; ICR female mice; lesions counted 8th day.
Series [2] deals with serum interferon. Also noted: species or system mice. Conditions: mouse, in vivo.
Series [3] can be described thus: Toxicity (acute toxicity, 50% lethal dose). The conditions noted are these: mouse, in vivo, ddY male mice.
The mark [4] stands for this setting: iv, read-out: 50% Lethal dose, intravenously administered.
Setting [5] is: ip, read-out: 50% Lethal dose, intraperitoneally administered.

The structures appear in SMILES notation. Where a name gives a salt, the structure may show the parent alone. Read-outs that look alike come from different tables or passages of the source. A value given as a limit tells only on which side of the number the result lay.

On to `CC(C)=CCCC(C)=CCCC(C)=CCCC(C)=CCCC(C)=CCCC(C)=CCCC(C)=CCCC(C)=CCCC(C)=CCNCc1ccccc1` [N-benzylsolanesylamine hydrochloride], for which the “Prevention from vaccinia infection (Inhibition of tail lesion)” value (shortened to “Prevention … (Inhibition of tail lesion)”) in series [1] was determined as 74.7%. Besides, the “Serum interferon (Plaque inhibition)” value in series [2] was 31.5%. The LD50 in series [3] (setting [4]) came out at 152 mg/kg.
As for `CC(C)=CCCC(C)=CCCC(C)=CCCC(C)=CCCC(C)=CCCC(C)=CCCC(C)=CCCC(C)=CCCC(C)=CCN(C)Cc1ccccc1` [N-methyl-N-benzylsolanesylamine hydrochloride], the “Prevention … (Inhibition of tail lesion)” value in series [1] is listed as 17.5%. In series [2], the “Serum interferon (Plaque inhibition)” value is listed as 44.5%. Further, the figures for the LD50 in series [3] (setting [5]) and in series [3] (setting [4]) were over 500 mg/kg and 550 mg/kg, respectively.
For `CC(C)=CCCC(C)=CCCC(C)=CCCC(C)=CCCC(C)=CCCC(C)=CCCC(C)=CCCC(C)=CCCC(C)=CCN(C)c1ccccc1` [N-methyl-N-phenylsolanesylamine], in that order: 26.8%, 24.1%, over 500 mg/kg and over 500 mg/kg.
As to `CC(C)=CCCC(C)=CCCC(C)=CCCC(C)=CCCC(C)=CCCC(C)=CCCC(C)=CCCC(C)=CCCC(C)=CCNCCc1ccccc1` [N-phenethylsolanesylamine hydrochloride], the “Prevention … (Inhibition of tail lesion)” value in series [1] turned out to be 30.8%. Besides, the “Serum interferon (Plaque inhibition)” value in series [2] is reported as 19.1%. The values for the LD50 in series [3] (setting [5]) and in series [3] (setting [4]) were over 500 mg/kg and 250 mg/kg, respectively.

For the origin of these results see patent US4322555A, “Nonaprenylamine derivatives” (priority 1980, dated 1982).
